Assay results from ChEMBL document CHEMBL4831525, “Design, synthesis and biological evaluation of quinazoline derivatives as potent and selective FGFR4 inhibitors” (Eur J Med Chem, 2021).
pIC50: −log10 of the molar value. Active and inactive are the calls of the source. No cut-off for these calls is given here.

How the values were obtained:
Huh-7 = experiment: cells; settings: Homo sapiens, Huh-7, 72 h
Description: Antiproliferative activity against human Huh-7 cells assessed as inhibition of cell proliferation measured after 72 hrs by SRB assay

[1] = Stability of the compound in rat liver microsomes assessed as parent compound remaining incubated for 60 mins in presence of NADPH by LC-MS analysis; type: ADME, Microsome; settings: read-out: Stability
Hep 3B2 = experiment: Induction of apoptosis in human Hep3B cells assessed as increase in cleaved PARP level at 3 to 20 uM by Western blot analysis; type: functional, cell-based; settings: dose 3-20 µM
[2] = molecular target: Fibroblast growth factor receptor 2 (Homo sapiens, UniProt P21802); experiment: Inhibition of FGFR2 (unknown origin)
[3] = molecular target: Fibroblast growth factor receptor 3 (Homo sapiens, UniProt P22607); experiment: Inhibition of FGFR3 (unknown origin)
[4] = molecular target: T1, Fibroblast growth factor receptor 4 (Homo sapiens, UniProt P22455)
Target sequence in this assay (P22455 whole entry): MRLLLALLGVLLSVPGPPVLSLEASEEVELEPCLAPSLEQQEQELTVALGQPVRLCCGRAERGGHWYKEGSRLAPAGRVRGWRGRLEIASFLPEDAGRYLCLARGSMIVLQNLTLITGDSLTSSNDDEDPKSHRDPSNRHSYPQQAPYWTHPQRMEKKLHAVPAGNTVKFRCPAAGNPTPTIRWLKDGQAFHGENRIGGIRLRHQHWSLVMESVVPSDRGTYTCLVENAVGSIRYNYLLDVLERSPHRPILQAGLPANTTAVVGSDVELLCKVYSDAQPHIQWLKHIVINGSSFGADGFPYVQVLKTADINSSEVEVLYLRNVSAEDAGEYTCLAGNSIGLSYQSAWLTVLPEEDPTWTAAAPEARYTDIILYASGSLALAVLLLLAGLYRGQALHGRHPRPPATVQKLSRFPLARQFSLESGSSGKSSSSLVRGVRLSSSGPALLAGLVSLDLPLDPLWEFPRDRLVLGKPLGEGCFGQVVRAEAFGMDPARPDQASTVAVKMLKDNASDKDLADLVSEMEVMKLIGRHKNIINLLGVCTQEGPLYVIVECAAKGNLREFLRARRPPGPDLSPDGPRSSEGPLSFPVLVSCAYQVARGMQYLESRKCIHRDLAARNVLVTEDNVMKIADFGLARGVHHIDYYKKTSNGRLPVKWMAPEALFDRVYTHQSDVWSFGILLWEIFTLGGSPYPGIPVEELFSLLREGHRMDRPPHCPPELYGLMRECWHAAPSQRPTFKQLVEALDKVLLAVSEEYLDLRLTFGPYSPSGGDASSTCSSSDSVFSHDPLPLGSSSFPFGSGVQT
Description: Inhibition of FGFR4 (unknown origin)

[5] = molecular target: Fibroblast growth factor receptor 1 (Homo sapiens, UniProt P11362); experiment: Inhibition of FGFR1 (unknown origin)
[6] = molecular target: T1, Fibroblast growth factor receptor 4; experiment: Inhibition of N-terminal GST fusion tagged human FGFR4 cytoplasmic domain (460 to 802 end residues) expressed in baculovirus expression system at 1 nM preincubated for 10 mins followed by substrate addition and further incubated for 30 mins in presence of ATP at Km concentration by caliper mobility shift assay relative to control; settings: time 40.0 min
Target sequence in this assay (P22455 22-802 limits assumed): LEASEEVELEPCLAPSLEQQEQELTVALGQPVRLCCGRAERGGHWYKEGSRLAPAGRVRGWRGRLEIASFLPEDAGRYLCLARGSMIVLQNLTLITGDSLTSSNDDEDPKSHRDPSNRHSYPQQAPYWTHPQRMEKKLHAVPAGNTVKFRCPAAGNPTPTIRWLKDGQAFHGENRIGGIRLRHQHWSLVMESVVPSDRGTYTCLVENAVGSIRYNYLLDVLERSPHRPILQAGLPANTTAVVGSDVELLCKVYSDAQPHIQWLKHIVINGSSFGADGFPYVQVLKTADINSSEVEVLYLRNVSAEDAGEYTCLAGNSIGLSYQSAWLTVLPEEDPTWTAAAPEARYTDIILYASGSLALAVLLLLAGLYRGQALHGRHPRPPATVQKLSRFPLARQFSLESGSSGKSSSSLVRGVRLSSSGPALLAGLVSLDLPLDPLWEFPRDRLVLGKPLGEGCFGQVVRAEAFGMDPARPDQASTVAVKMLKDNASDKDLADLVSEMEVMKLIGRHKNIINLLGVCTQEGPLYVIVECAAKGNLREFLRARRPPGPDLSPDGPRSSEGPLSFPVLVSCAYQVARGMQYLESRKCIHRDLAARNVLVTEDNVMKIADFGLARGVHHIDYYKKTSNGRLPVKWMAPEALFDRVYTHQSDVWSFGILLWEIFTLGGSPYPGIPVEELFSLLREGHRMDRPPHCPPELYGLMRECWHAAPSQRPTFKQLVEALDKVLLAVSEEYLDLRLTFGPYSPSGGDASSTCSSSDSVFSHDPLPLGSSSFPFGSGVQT

[7] = Stability of the compound in rat plasma assessed as parent compound remaining incubated for 60 mins; type: ADME, cell-free; settings: read-out: Stability

Chain of Fibroblast growth factor receptor 2 (P21802 whole entry): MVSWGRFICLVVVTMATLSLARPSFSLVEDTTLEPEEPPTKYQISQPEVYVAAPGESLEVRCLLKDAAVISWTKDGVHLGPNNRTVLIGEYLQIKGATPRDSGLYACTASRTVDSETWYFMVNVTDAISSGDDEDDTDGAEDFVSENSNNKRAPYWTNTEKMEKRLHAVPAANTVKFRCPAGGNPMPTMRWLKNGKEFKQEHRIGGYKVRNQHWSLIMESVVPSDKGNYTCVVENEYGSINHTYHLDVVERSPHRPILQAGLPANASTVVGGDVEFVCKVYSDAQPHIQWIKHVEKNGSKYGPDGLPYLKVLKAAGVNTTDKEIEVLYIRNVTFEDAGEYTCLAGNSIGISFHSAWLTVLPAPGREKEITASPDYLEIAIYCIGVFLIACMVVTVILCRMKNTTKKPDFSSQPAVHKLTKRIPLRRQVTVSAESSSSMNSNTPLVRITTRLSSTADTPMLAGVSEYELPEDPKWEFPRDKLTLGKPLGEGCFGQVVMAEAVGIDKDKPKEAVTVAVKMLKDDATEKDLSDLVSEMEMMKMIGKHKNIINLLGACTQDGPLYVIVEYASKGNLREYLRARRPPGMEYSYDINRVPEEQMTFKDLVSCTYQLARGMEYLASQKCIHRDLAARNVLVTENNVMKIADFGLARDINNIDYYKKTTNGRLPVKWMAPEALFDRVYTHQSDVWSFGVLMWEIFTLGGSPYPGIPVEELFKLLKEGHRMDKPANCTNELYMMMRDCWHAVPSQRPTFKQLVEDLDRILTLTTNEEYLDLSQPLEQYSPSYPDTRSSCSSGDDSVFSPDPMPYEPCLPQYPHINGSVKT
Chain of Fibroblast growth factor receptor 3 (P22607 whole entry): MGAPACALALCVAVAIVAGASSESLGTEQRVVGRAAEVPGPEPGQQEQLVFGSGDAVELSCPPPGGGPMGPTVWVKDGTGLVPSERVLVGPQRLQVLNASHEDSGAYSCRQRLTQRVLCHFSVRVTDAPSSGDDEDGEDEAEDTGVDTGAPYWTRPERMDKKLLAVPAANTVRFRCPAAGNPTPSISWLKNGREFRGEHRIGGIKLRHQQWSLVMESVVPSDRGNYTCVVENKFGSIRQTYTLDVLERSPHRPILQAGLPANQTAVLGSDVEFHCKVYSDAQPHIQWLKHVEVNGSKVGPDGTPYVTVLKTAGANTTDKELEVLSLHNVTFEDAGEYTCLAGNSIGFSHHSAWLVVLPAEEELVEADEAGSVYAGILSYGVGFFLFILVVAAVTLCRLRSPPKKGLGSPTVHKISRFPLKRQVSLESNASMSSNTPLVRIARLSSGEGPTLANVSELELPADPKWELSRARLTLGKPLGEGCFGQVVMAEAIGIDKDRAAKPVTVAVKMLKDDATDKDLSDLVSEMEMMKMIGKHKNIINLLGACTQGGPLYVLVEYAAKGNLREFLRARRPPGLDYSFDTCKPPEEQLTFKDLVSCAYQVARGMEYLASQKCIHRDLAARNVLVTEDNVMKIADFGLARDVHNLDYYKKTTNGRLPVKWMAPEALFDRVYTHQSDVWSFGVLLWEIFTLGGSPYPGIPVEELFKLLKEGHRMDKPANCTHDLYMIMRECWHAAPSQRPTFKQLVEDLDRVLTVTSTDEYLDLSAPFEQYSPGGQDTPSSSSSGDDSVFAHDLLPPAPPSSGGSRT
Chain of Fibroblast growth factor receptor 1 (P11362 whole entry, the tested form may be a part): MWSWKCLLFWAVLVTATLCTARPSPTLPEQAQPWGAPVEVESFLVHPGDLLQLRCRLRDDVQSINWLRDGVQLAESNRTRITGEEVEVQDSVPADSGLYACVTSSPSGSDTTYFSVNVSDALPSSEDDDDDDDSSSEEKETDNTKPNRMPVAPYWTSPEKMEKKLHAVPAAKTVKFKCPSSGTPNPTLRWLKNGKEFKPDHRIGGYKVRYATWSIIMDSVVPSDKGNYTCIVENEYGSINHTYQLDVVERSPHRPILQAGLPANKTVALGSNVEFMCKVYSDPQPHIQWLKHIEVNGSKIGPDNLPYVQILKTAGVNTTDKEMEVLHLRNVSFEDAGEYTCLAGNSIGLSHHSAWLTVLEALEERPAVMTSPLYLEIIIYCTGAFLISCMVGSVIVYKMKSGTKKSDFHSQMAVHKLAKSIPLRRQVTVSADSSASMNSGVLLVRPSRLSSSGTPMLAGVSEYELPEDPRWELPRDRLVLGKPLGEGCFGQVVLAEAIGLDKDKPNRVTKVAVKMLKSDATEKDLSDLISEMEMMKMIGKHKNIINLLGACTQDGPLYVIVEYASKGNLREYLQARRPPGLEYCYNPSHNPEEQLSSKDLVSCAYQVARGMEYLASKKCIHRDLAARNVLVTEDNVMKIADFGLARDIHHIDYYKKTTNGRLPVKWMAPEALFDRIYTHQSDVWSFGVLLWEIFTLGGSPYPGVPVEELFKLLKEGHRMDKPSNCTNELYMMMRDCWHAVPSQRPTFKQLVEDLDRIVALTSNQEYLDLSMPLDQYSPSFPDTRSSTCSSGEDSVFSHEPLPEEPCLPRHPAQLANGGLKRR

**Q.** With `C=CC(=O)Nc1cc(CCN2CCC(NC(=O)OC(C)(C)C)CC2)cc(C)c1Nc1ncc2cc(-c3c(Cl)c(OC)cc(OC)c3Cl)ccc2n1` as the molecule, how does the pIC50 (Huh-7) read?
**A.** Its pIC50 is 5.35.

**Q.** What does the source list for `C=CC(=O)Nc1cccc(C)c1Nc1ncc2cc(-c3c(Cl)c(OC)cc(OC)c3Cl)ccc2n1`?
**A.** remaining at 1 h [1]: 15%; Activity (Hep 3B2): Active; pIC50 (Huh-7): 6.03

**Q.** With `C=CC(=O)Nc1cc(CCN2CCCC2)cc(C)c1Nc1ncc2cc(-c3c(Cl)c(OC)cc(OC)c3Cl)ccc2n1` as the molecule, how does the pIC50 (Huh-7) read?
**A.** The pIC50 was 5.34.

**Q.** With `C=CC(=O)Nc1cc(CCN2CCN(CCOC)CC2)cc(C)c1Nc1ncc2cc(-c3c(Cl)c(OC)cc(OC)c3Cl)ccc2n1` as the molecule, how does the pIC50 (Huh-7) read?
**A.** The pIC50 was 5.38.

**Q.** With `C=CC(=O)Nc1cc(CCN2CCN(C)CC2)cc(C)c1Nc1ncc2cc(-c3c(Cl)c(OC)cc(OC)c3Cl)ccc2n1` as the molecule, how does the pIC50 (Huh-7) read?
**A.** The pIC50 was 5.15.

**Q.** With `C=CC(=O)Nc1cc(CCN(CC)CCC)cc(C)c1Nc1ncc2cc(-c3c(Cl)c(OC)cc(OC)c3Cl)ccc2n1` as the molecule, how does the pIC50 (Huh-7) read?
**A.** The pIC50 was 5.36.

**Q.** What does the source list for `C=CC(=O)N[C@H]1CCOC[C@H]1Nc1ncc2cc(-c3c(Cl)c(OC)cc(OC)c3Cl)ccc2n1` [FISOGATINIB]?
**A.** pIC50 [2]: 5.92; pIC50 [3]: 5.66; pIC50 [4]: 8.30

**Q.** With `C=CC(=O)Nc1cc(CCO)cc(C)c1Nc1ncc2cc(-c3c(Cl)c(OC)cc(OC)c3Cl)ccc2n1` as the molecule, how does the pIC50 (Huh-7) read?
**A.** Its pIC50 is 5.62.

**Q.** With `C=CC(=O)Nc1cc(CCN2CCOCC2)cc(C)c1Nc1ncc2cc(-c3c(Cl)c(OC)cc(OC)c3Cl)ccc2n1` as the molecule, how does the pIC50 (Huh-7) read?
**A.** Its pIC50 is 4.88.

**Q.** With `C=CC(=O)Nc1cc(CCN2CCN(C3COC3)CC2)cc(C)c1Nc1ncc2cc(-c3c(Cl)c(OC)cc(OC)c3Cl)ccc2n1` as the molecule, how does the pIC50 (Huh-7) read?
**A.** The pIC50 was 5.07.

**Q.** With `C=CC(=O)Nc1cc(S(=O)(=O)NC(=O)C=C)ccc1Nc1ncc2cc(-c3c(Cl)c(OC)cc(OC)c3Cl)ccc2n1` as the molecule, how does the pIC50 (Huh-7) read?
**A.** Its pIC50 is 5.32.

**Q.** With `C=CC(=O)Nc1cc(S(C)(=O)=O)cc(C)c1Nc1ncc2cc(-c3c(Cl)c(OC)cc(OC)c3Cl)ccc2n1` as the molecule, how does the pIC50 [5] read?
**A.** The pIC50 was 6.05.

**Q.** And the pIC50 [2]?
**A.** The pIC50 was 6.42.

**Q.** What about the pIC50 [3] of the same molecule?
**A.** The pIC50 was 5.41.

**Q.** And the pIC50 (Huh-7)?
**A.** The pIC50 was 5.71.

**Q.** Which inhibition [6] does the source give for `C=CC(=O)Nc1cc(CCCN(C)C)cc(C)c1Nc1ncc2cc(-c3c(Cl)c(OC)cc(OC)c3Cl)ccc2n1` here?
**A.** The inhibition was 55%.

**Q.** What about the pIC50 (Huh-7) of the same molecule?
**A.** Its pIC50 is 5.65.

**Q.** With `C=CC(=O)Nc1cc(S(C)(=O)=O)ccc1Nc1ncc2cc(-c3c(Cl)c(OC)cc(OC)c3Cl)ccc2n1` as the molecule, how does the pIC50 [5] read?
**A.** The pIC50 was 7.55.

**Q.** What about the pIC50 [2] of the same molecule?
**A.** Its pIC50 is 7.82.

**Q.** What about the pIC50 [3] of the same molecule?
**A.** Its pIC50 is 6.99.

**Q.** What about the pIC50 (Huh-7) of the same molecule?
**A.** Its pIC50 is 5.67.

**Q.** With `C=CC(=O)Nc1cc(SC)ccc1Nc1ncc2cc(-c3c(Cl)c(OC)cc(OC)c3Cl)ccc2n1` as the molecule, how does the pIC50 [5] read?
**A.** Its pIC50 is 7.41.

**Q.** What about the pIC50 [2] of the same molecule?
**A.** Its pIC50 is 7.62.

**Q.** What about the pIC50 [3] of the same molecule?
**A.** Its pIC50 is 7.10.

**Q.** What about the pIC50 (Huh-7) of the same molecule?
**A.** Its pIC50 is 6.03.

**Q.** With `C=CC(=O)Nc1cc(S(N)(=O)=O)cc(C)c1Nc1ncc2cc(-c3c(Cl)c(OC)cc(OC)c3Cl)ccc2n1` as the molecule, how does the remaining at 1 h [1] read?
**A.** Its remaining at 1 h is 50%.

**Q.** And the remaining at 1 h [7]?
**A.** The remaining at 1 h was 80%.

**Q.** And the pIC50 [5]?
**A.** The pIC50 was 6.10.

**Q.** What about the pIC50 [2] of the same molecule?
**A.** Its pIC50 is 6.47.

**Q.** What about the pIC50 [3] of the same molecule?
**A.** The pIC50 was 5.41.

**Q.** And the Activity (Hep 3B2)?
**A.** The Activity was “Active”.

**Q.** And the pIC50 (Huh-7)?
**A.** The pIC50 was 5.78.

**Q.** With `C=CC(=O)Nc1cc(CCCN2CCCC2)cc(C)c1Nc1ncc2cc(-c3c(Cl)c(OC)cc(OC)c3Cl)ccc2n1` as the molecule, how does the pIC50 (Huh-7) read?
**A.** The pIC50 was 5.37.

**Q.** With `C=CC(=O)Nc1cc(CCN2CCCC2CN2CCCC2)cc(C)c1Nc1ncc2cc(-c3c(Cl)c(OC)cc(OC)c3Cl)ccc2n1` (centres undefined) as the molecule, how does the pIC50 (Huh-7) read?
**A.** The pIC50 was 5.45.

**Q.** With `C=CC(=O)Nc1cc(CCN2CCc3ccccc3C2)cc(C)c1Nc1ncc2cc(-c3c(Cl)c(OC)cc(OC)c3Cl)ccc2n1` as the molecule, how does the pIC50 (Huh-7) read?
**A.** The pIC50 was 5.35.
